The values that follow come from patent US9326988B2, “Treatment and/or prevention of parkinson's disease dementia with ceftriaxone” (CHUNG SHAN MEDICAL UNIVERSITY, priority 2012, dated 2016).

The subject of series [1] is normal rats. Kind of series: T-maze test (working memory) in sham-operated rats. It counts as in vivo, male Wistar rats. Conditions: determined 10th day (FIG. 3). How it is done: (§1) The rats in the sham-operated groups were generally subjected to the same surgical procedures for the rats in the pathological control group, the preventive groups, and the treatment groups, except that an equal volume of saline was infused bilaterally into the SNc of the mesencephalon of rats in the shame-operated groups.
(§2) 5 days before the MPTP-HCl injection, ceftriaxone (Sigma) was administered to the rats in the preventive groups 1,2 via intraperitoneal injection respectively at a daily dose of 100 mg/kg and at a daily dose of 200 mg/kg until the end of the 14th day after the MPTP-HCl injection. After the MPTP-HCl injection, ceftriaxone was administered to the rats in the treatment group 1 and the sham-operated groups 2,3 via intraperitoneal injection respectively at a daily dose of 200 mg/kg, at a daily dose of 100 mg/kg, and at a daily dose of 200 mg/kg, and saline was administered to the rats in the pathological control group and the sham-operated group 1 via intraperitoneal injection at a daily dose of 1 mL/kg. In addition, starting on the 3rd day after the MPTP-HCl injection, ceftriaxone was administered to the rats in the treatment groups 2,3 via intraperitoneal injection respectively at a daily dose of 100 mg/kg and at a daily dose of 200 mg/kg. […]

The test system of series [2] is normal rats. Kind of series: Object recognition test in sham-operated rats. Type of series: in vivo, male Wistar rats. Conditions: determined 14th day (FIG. 4). The procedure: as §1
as §2, with “mL/kg.” for “mL/kg. In addition, starting on the 3rd day after the MPTP-HCl injection, ceftriaxone was administered to the rats in the treatment groups 2,3 via intraperitoneal injection respectively at a daily dose of 100 mg/kg and at a daily dose of 200 mg/kg.”
The object recognition test is described as follows. […] By virtue of the video camera, the time spent by the respective rat exploring an object (i.e. the object A1, A2, A3, or B) during a trial (i.e. the first, second, third, or fourth trial) was measured. […]

The test system of series [3] is rats chronically exposed to hypobaric hypoxia. The following applies: cited from earlier work.

`CO/N=C(\C(=O)N[C@@H]1C(=O)N2C(C(=O)O)=C(CSc3nc(=O)c(=O)[nH]n3C)CS[C@H]12)c1csc(N)n1` [ceftriaxone, Ceftriaxone]: the “correct response rate compared to sham-operated group 1 (saline)” value in the series on normal rats [1] (sham-operated group 2: 100 mg/kg daily i.p. to 14th day) and in the series with normal rats [1] (sham-operated group 3: 200 mg/kg daily i.p. to 14th day) was “no statistical significance” throughout. For the same compound, the “percentage of exploration time spent on object B in the fourth trial versus object A3 in the third trial” value in the series on normal rats [2] (sham-operated group 2: 100 mg/kg daily i.p.) and with normal rats [2] (sham-operated group 3: 200 mg/kg daily i.p.) was “there is statistical significance” each time. Besides, the “cognitive impairment resulting from hypobaric hypoxia” value in series [3] is “capable of ameliorating the cognitive impairment resulting from hypobaric hypoxia”. In addition, the “neuronal degeneration and chromatin condensation” value in series [3] is “decreasing neuronal degeneration and chromatin condensation”. In addition, the “oxidative stress in the hippocampus” value in series [3] was “reducing oxidative stress in the hippocampus”.
